From ChEMBL document CHEMBL4024781, “Comprehensive Synthesis of Amino Acid-Derived Thiazole Peptidomimetic Analogues to Understand the Enigmatic Drug/Substrate-Binding Site of P-Glycoprotein” (J Med Chem, 2018)

How the values were obtained:
Conditions in all cases: read-out: Activity
[1] = molecular target: T1, P-gp (ABCB1) (Homo sapiens, UniProt P08183); test: Activation of human P-gp expressed in high five insect cell membrane vesicles by measuring the vanadate-sensitive ATPase activity of P-gp at 2.5 uM preincubated for 5 mins in the presence of sodium orthovanadate measured after 20 mins by colorimetric method
T1 sequence (P08183 whole entry): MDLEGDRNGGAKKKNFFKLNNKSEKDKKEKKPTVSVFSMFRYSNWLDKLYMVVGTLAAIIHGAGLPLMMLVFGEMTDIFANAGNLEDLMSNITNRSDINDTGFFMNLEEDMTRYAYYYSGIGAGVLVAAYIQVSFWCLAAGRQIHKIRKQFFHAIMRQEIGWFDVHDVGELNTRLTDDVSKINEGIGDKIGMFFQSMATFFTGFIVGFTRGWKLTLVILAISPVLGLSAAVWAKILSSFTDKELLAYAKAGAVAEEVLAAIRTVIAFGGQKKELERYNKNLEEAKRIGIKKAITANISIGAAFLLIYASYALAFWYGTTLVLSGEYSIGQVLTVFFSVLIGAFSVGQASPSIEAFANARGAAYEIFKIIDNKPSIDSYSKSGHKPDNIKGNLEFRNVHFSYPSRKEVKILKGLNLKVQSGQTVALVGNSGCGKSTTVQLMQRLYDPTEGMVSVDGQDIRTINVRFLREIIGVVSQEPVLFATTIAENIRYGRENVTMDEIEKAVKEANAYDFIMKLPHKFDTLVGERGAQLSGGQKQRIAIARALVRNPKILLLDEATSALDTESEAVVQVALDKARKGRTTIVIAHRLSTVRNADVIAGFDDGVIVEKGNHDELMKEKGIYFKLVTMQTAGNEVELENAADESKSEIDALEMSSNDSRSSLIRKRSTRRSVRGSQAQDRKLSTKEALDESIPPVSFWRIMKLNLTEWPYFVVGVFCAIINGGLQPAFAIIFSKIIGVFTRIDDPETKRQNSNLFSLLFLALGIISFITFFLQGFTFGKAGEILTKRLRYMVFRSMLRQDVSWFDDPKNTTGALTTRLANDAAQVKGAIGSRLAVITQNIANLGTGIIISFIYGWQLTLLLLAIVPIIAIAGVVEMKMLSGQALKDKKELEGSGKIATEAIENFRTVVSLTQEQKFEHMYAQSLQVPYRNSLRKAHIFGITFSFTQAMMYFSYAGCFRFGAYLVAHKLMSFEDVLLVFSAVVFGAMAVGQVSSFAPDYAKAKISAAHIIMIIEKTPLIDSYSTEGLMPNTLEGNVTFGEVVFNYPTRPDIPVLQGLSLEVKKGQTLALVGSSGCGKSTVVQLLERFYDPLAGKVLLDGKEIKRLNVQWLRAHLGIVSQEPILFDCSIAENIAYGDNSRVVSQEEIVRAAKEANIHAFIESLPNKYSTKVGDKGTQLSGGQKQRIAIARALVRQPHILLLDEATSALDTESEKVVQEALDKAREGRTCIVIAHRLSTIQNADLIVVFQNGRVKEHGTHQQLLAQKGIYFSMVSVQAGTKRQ

[2] = molecular target: T1, P-gp (ABCB1); test: Activation of human P-gp expressed in high five insect cell membrane vesicles by measuring the vanadate-sensitive ATPase activity of P-gp at 0.5 uM preincubated for 5 mins in the presence of sodium orthovanadate measured after 20 mins by colorimetric method
[3] = molecular target: T1, P-gp (ABCB1); test: Activation of human P-gp expressed in high five insect cell membrane vesicles by measuring the vanadate-sensitive ATPase activity of P-gp at 0.05 uM preincubated for 5 mins in the presence of sodium orthovanadate measured after 20 mins by colorimetric method

SMILES | activity at 20 min, 2.5 µM [1] | activity at 20 min, 0.5 µM [2] | activity at 20 min, 0.05 µM [3]
COc1cc(CC(=O)N[C@H](c2nc(C(=O)NC3CCC(F)(F)CC3)cs2)C(C)C)cc(OC)c1OC | 70.2% |  | 
COc1cc(C(=O)N[C@H](c2nc(C(=O)Nc3ccccc3NC(=O)c3ccccc3)cs2)C(C)C)cc(OC)c1OC |  | 52% | ≤ 10%
COc1cc(C(=O)N[C@H](c2nc(C(=S)NC3CCCCC3)cs2)C(C)C)cc(OC)c1OC | 27% | ≤ 10% | 
COc1cc(C(=O)N[C@H](c2nc(C(=O)Nc3ccccc3C(=O)c3ccc(N=[N+]=[N-])cc3)cs2)C(C)C)cc(OC)c1OC | 169% | 148% | 
COc1cc(C(=O)N[C@H](c2nc(C(=O)Nc3ccccc3Cc3ccccc3)cs2)C(C)C)cc(OC)c1OC |  | 112% | 15%
COc1cc(C(=O)N[C@H](c2nc(C(=O)NC3CC3)cs2)C(C)C)cc(OC)c1OC |  | ≤ 10% | ≤ 10%
COc1cc(C(=O)N[C@H](c2nc(C(=O)Nc3ccc(F)cc3)cs2)C(C)C)cc(OC)c1OC | 244% | 59.5% | 
COc1cc(C(=O)N[C@H](c2nc(C(=O)NC3CCN(c4ncccn4)CC3)cs2)C(C)C)cc(OC)c1OC | 83% | 17.1% | 
CC(C)[C@H](NC(=O)c1ccccc1N=[N+]=[N-])c1nc(C(=O)Nc2ccccc2C(=O)c2ccccc2)cs1 | 182% | 142% | 
COc1cc(C(=O)N[C@H](c2nc(C(=O)NC34CC5CC(CC(C5)C3)C4)cs2)C(C)C)cc(OC)c1OC |  | ≤ 10% | ≤ 10%
CC(C)[C@H](NC(=O)c1cnc2ccccc2c1)c1nc(C(=O)NC2CCC(F)(F)CC2)cs1 | 83.9% |  | 
COc1cc(C(=O)N[C@H](c2nc(C(=O)Nc3ccccc3C(=O)c3ccc(Br)cc3)cs2)C(C)C)cc(OC)c1OC |  | 149% | 309%
COc1cc(C(=O)N[C@H](c2nc(C(=O)N[C@H]3CCCc4ccccc43)cs2)C(C)C)cc(OC)c1OC | 123% | 108% | 
CC(C)[C@H](NC(=O)c1ccc(N=[N+]=[N-])cc1)c1nc(C(=O)Nc2ccccc2C(=O)c2ccccc2)cs1 | 164% | 135% | 
COc1cc(C(=O)N[C@H](c2nc(C(=O)N3CCC(=O)CC3)cs2)C(C)C)cc(OC)c1OC | ≤ 10% | ≤ 10% | 
COc1cc(C(=O)NC(c2nc(C(=O)NCC3CCC(N)CC3)cs2)C(C)C)cc(OC)c1OC (configuration not stated) | ≤ 10% | ≤ 10% | 
COc1cc(C(=O)N[C@H](c2nc(C(=O)N3CCC(N4CCCCC4)CC3)cs2)C(C)C)cc(OC)c1OC | 47.2% | 37.2% | 
COc1cc(C(=O)N[C@H](c2nc(C(=O)N3CCC(F)(F)CC3)cs2)C(C)C)cc(OC)c1OC | 55.9% | 40.9% | 
COc1cc(C(=O)N[C@H](c2nc(C(=O)NCCCC(F)(F)F)cs2)C(C)C)cc(OC)c1OC | 77.3% | 17.1% | 
COc1cc(C(=O)N[C@H](c2nc(C(=O)NC3CCOCC3)cs2)C(C)C)cc(OC)c1OC | ≤ 10% | 26.9% | 
COc1ccc(C(=O)N[C@H](c2nc(C(=O)NC3CCC(F)(F)CC3)cs2)C(C)C)cc1 | 35.8% |  | 
COc1cc(C(=O)N[C@H](c2nc(C(=O)NCC3CCNCC3)cs2)C(C)C)cc(OC)c1OC | ≤ 10% | 23% | 
COc1cc(C(=O)N[C@H](c2nc(C(=O)N3CCC(C(F)(F)F)CC3)cs2)C(C)C)cc(OC)c1OC | 75.6% | 13.3% | 
COc1cc(NC(=O)c2csc([C@@H](NC(=O)c3ccccc3C(=O)c3ccccc3)C(C)C)n2)cc(OC)c1OC |  | 46% | ≤ 10%
CC(C)[C@H](NC(=O)c1ccccc1)c1nc(C(=O)NC2CCC(F)(F)CC2)cs1 | 10.5% |  | 
COc1cc(C(=O)NCc2nc(C(=O)NC3CCC(F)(F)CC3)cs2)cc(OC)c1OC | 13% | ≤ 10% | 
COc1cc(C(=O)C(=O)N[C@H](c2nc(C(=O)NC3CCC(F)(F)CC3)cs2)C(C)C)cc(OC)c1OC | 178% |  | 

SMILES | activity at 20 min, 2.5 µM [1] | activity at 20 min, 0.5 µM [2] | activity at 20 min, 0.05 µM [3]
COc1cc(C(=O)N[C@H](c2nc(C(=O)NC3CCC3)cs2)C(C)C)cc(OC)c1OC | ≤ 10% | 25.3% | 
COc1cc(C(=O)N[C@H](c2nc(C(=O)NC3CCS(=O)(=O)CC3)cs2)C(C)C)cc(OC)c1OC | ≤ 10% | ≤ 10% | 
COc1cc(C(=O)N[C@H](c2nc(C(=O)Nc3ccccc3C(=O)Nc3ccccc3)cs2)C(C)C)cc(OC)c1OC |  | 142% | 21%
CC(C)[C@H](NC(=O)C1CCOCC1)c1nc(C(=O)NC2CCC(F)(F)CC2)cs1 | ≤ 10% |  | 
COc1cc(C(=O)N[C@H](c2nc(C(=O)Nc3ccccc3Oc3ccccc3)cs2)C(C)C)cc(OC)c1OC |  | 88% | ≤ 10%
COc1cc(C(=S)N[C@H](c2nc(C(=S)NC3CCC(F)(F)CC3)cs2)C(C)C)cc(OC)c1OC | 64% | 25% | 
CC(C)[C@H](NC(=O)c1cncnc1)c1nc(C(=O)NC2CCC(F)(F)CC2)cs1 | ≤ 10% |  | 
COc1ccc(C(=O)N[C@H](c2nc(C(=O)NC3CCC(F)(F)CC3)cs2)C(C)C)cc1OC | 11.9% |  | 
COc1cc(C(=O)N[C@H](c2nc(C(=O)NC3CCNCC3)cs2)C(C)C)cc(OC)c1OC | 14.5% | 46.3% | 
CC(C)[C@H](NC(=O)c1cscn1)c1nc(C(=O)NC2CCC(F)(F)CC2)cs1 | 49.7% |  | 
COc1cc(C(=O)N[C@H](c2nc(C(=O)NC3CCN(Cc4ccccc4)CC3)cs2)C(C)C)cc(OC)c1OC | 154% | 169% | 
CC(C)[C@H](NC(=O)c1cccc(N=[N+]=[N-])c1)c1nc(C(=O)Nc2ccccc2C(=O)c2ccccc2)cs1 | 194% | 122% | 
COc1cc(C(=O)N[C@H](c2nc(C(=O)N3CCC(N)CC3)cs2)C(C)C)cc(OC)c1OC | ≤ 10% | 45.4% | 
COc1cc(C(=O)N[C@H](c2nc(C(=O)NC3CCN(C(=O)OC(C)(C)C)CC3)cs2)C(C)C)cc(OC)c1OC | 48% | 52.7% | 
COc1cc(C(=O)N[C@H](c2nc(C(=O)NC3CCC(C)(C)CC3)cs2)C(C)C)cc(OC)c1OC | 34.3% | ≤ 10% | 
COc1cc(C(=O)N2CCCC2c2nc(C(=O)NC3CCC(F)(F)CC3)cs2)cc(OC)c1OC (configuration not stated) | 21% | ≤ 10% | 
COc1cc(C(=O)Nc2nc(C(=O)NC3CCC(F)(F)CC3)cs2)cc(OC)c1OC | 60.2% | 53.9% | 
CC(C)[C@H](NC(=O)c1ccc(N=[N+]=[N-])cc1)c1nc(C(=O)Nc2ccccc2C(=O)c2ccc(Br)cc2)cs1 | 84.7% | 99.4% | 
CC(C)[C@H](N)c1nc(C(=O)NC2CCC(F)(F)CC2)cs1 | ≤ 10% | ≤ 10% | 
COc1cc(C(=O)N[C@H](c2nc(C(=O)Nc3cccc(C(=O)c4ccccc4)c3)cs2)C(C)C)cc(OC)c1OC |  | 143% | 13%
COc1cc(C(=O)N[C@H](c2nc(C(=O)N(C3CCCCC3)C3CCCCC3)cs2)C(C)C)cc(OC)c1OC | 134% | 109% | 
COc1cc(C(=O)N[C@H](c2nc(C(=O)Nc3cc(F)c(F)c(F)c3)cs2)C(C)C)cc(OC)c1OC | 176% | 57% | 
COc1cc(C(=S)N[C@H](c2nc(C(=S)NC3CCCCC3)cs2)C(C)C)cc(OC)c1OC | 92% | 65% | 
COc1cc(C(=O)N[C@H](c2nc(C(=O)NC3CCC(=O)CC3)cs2)C(C)C)cc(OC)c1OC | ≤ 10% | 13.1% | 
COc1cc(C(=O)NC(CC(C)C)c2nc(C(=O)NC3CCC(F)(F)CC3)cs2)cc(OC)c1OC (configuration not stated) | 68% | 16% | 
COc1cc(C(=O)N[C@H](c2nc(C(=O)NC3CCCC3)cs2)C(C)C)cc(OC)c1OC | ≤ 10% | ≤ 10% | 
